Data: the kinase profiling compilation of Christmann-Franck et al. (2016)

Key:
Experiment in all cases: KINOMEscan competition binding
Conditions in all cases: compound 10.0 µM
[1] = test system: ABL1 (human), P00519 [M351T]
ACVR2A (human) = ACVR2A (human) (UniProt P27037)
AURKB (human) = AURKB (human) (UniProt Q96GD4)
BMPR1A (human) = BMPR1A (human) (UniProt P36894)
CAMK2G (human) = CAMK2G (human) (UniProt Q13555)
CDC42BPA (human) = CDC42BPA (human) (UniProt Q5VT25)
CDC42BPG (human) = CDC42BPG (human) (UniProt Q6DT37)
CDK17 (human) = CDK17 (human) (UniProt Q00537)
CDK5 (human) = CDK5 (human) (UniProt Q00535)
CHEK1 (human) = CHEK1 (human) (UniProt O14757)
CLK4 (human) = CLK4 (human) (UniProt Q9HAZ1)
CSNK1A1L (human) = CSNK1A1L (human) (UniProt Q8N752)
DAPK2 (human) = DAPK2 (human) (UniProt Q9UIK4)
DMPK (human) = DMPK (human) (UniProt Q09013)
FGFR1 (human) = FGFR1 (human) (UniProt P11362)
[2] = test system: FLT3 (human), P36888 [N841I]
FRK (human) = FRK (human) (UniProt P42685)
Chain of FRK (human) (P42685 whole entry, looked up): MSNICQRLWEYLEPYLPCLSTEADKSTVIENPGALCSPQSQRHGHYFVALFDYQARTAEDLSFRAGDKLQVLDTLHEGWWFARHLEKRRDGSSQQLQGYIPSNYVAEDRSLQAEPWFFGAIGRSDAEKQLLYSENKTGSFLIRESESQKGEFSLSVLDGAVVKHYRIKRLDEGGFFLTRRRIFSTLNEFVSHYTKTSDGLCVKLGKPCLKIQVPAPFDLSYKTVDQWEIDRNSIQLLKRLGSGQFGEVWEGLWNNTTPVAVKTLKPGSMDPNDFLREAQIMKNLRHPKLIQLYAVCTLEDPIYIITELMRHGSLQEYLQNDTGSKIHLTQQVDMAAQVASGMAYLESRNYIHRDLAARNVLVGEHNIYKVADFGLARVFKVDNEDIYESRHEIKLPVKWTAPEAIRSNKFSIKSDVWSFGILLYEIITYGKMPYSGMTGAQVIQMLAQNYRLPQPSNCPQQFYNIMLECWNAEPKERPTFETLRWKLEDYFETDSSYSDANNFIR

INSR (human) = INSR (human) (UniProt P06213)
Chain of INSR (human) (P06213 whole entry, looked up): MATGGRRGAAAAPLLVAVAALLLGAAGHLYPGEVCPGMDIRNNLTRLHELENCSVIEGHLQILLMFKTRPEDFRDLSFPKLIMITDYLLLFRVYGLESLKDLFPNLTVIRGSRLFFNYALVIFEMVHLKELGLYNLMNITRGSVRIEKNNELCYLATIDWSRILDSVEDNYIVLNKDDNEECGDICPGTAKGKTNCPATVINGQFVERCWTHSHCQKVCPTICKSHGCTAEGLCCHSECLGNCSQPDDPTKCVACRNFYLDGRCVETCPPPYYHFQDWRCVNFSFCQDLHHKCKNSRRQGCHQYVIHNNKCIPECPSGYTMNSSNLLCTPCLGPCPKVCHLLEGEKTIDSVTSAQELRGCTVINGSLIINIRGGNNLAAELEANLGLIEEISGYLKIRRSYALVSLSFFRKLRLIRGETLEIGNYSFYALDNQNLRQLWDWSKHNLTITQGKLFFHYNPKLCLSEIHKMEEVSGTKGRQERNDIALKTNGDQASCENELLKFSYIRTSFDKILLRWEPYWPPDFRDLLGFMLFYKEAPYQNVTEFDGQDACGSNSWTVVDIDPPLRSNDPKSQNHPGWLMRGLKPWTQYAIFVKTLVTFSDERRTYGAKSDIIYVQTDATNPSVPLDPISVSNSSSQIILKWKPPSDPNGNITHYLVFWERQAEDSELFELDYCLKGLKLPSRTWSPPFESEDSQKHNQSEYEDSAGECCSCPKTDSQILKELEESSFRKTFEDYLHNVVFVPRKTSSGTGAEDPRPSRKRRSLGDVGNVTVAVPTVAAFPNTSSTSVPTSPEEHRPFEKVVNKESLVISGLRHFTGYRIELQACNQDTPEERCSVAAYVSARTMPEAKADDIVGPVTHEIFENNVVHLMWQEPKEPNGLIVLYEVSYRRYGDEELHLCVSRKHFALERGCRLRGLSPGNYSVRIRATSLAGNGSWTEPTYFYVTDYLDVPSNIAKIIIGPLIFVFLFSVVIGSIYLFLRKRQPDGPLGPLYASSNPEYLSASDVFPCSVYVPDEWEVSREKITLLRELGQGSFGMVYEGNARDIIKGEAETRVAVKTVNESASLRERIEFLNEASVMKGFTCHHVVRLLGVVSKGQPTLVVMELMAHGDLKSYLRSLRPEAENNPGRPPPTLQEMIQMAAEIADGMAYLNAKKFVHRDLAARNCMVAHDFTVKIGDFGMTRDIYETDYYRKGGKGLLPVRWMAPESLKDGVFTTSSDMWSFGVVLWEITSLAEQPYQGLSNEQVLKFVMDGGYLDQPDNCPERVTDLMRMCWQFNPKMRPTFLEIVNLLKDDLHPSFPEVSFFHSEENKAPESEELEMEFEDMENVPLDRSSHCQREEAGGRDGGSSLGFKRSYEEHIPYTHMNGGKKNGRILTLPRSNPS

INSRR (human) = INSRR (human) (UniProt P14616)
Chain of INSRR (human) (P14616 whole entry, looked up): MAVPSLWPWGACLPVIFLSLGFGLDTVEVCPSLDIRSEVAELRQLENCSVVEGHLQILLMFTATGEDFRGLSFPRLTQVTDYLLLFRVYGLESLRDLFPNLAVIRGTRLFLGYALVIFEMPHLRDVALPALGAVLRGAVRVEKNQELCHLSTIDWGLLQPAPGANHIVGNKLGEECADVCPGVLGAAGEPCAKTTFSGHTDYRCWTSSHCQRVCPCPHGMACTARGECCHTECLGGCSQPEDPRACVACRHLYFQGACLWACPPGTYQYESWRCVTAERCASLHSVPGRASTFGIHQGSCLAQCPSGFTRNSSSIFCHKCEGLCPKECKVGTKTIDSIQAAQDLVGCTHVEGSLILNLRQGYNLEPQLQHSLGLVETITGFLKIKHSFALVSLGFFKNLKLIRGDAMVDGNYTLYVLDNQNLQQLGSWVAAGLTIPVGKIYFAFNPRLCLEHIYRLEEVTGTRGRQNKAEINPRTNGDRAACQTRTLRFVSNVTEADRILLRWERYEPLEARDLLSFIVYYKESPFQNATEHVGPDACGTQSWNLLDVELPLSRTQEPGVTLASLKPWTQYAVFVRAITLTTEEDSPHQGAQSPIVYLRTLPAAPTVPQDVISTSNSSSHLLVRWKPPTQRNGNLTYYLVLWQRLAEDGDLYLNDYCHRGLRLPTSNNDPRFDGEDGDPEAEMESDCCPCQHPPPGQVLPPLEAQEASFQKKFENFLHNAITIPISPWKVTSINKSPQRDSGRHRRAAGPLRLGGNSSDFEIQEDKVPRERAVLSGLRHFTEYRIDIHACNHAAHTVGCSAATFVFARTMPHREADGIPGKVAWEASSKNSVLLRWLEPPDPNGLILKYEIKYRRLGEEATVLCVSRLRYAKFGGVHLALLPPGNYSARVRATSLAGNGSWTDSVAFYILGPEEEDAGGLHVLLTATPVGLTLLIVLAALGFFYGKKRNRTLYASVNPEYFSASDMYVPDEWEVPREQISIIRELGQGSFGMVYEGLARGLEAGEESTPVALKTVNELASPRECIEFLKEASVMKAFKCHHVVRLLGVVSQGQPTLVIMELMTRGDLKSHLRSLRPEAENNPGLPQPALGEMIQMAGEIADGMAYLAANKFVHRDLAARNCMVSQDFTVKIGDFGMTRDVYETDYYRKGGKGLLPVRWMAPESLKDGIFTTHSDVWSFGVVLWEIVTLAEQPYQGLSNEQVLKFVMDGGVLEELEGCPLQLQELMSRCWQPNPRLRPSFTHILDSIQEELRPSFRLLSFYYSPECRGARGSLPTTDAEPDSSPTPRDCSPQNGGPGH

[3] = biological target: JAK3 JH1 catalytic (human) (UniProt P52333)
[4] = test system: KIT (human), P10721 [V559D]
MAP3K11 (human) = MAP3K11 (human) (UniProt Q16584)
MAP4K3 (human) = MAP4K3 (human) (UniProt Q8IVH8)
MAPK8 (human) = MAPK8 (human) (UniProt P45983)
MARK3 (human) = MARK3 (human) (UniProt P27448)
MERTK (human) = MERTK (human) (UniProt Q12866)
Chain of MERTK (human) (Q12866 whole entry, looked up): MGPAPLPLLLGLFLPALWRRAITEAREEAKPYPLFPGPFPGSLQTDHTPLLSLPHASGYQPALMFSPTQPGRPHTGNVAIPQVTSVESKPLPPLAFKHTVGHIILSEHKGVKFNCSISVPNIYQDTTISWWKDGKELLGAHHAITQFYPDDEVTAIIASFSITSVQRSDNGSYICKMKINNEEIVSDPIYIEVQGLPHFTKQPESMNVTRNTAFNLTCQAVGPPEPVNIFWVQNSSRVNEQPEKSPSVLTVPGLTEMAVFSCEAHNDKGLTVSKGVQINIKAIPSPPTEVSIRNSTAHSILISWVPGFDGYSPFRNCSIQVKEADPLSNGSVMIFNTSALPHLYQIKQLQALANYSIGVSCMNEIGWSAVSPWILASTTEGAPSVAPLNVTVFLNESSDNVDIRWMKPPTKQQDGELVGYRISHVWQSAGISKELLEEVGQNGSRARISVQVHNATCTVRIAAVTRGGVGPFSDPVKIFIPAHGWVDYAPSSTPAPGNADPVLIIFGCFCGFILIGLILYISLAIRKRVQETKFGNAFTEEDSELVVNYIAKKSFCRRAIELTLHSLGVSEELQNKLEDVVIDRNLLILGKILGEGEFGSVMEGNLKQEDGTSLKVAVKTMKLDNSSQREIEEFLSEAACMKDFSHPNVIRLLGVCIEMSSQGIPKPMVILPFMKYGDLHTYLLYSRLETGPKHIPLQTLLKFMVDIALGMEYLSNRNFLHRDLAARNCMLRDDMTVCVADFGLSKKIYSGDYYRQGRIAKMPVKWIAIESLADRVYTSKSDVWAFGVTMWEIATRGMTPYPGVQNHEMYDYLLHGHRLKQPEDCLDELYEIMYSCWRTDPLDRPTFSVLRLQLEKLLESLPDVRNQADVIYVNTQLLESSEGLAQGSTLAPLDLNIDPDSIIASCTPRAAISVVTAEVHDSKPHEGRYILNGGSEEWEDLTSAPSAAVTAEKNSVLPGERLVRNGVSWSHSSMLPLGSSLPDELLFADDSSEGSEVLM

MST1R (human) = MST1R (human) (UniProt Q04912)
NEK9 (human) = NEK9 (human) (UniProt Q8TD19)
PAK3 (human) = PAK3 (human) (UniProt O75914)
PIK3C2B (human) = PIK3C2B (human) (UniProt O00750)
PIK3CD (human) = PIK3CD (human) (UniProt O00329)
PLK1 (human) = PLK1 (human) (UniProt P53350)
PRKAA2 (human) = PRKAA2 (human) (UniProt P54646)
Chain of PRKAA2 (human) (P54646 whole entry, looked up): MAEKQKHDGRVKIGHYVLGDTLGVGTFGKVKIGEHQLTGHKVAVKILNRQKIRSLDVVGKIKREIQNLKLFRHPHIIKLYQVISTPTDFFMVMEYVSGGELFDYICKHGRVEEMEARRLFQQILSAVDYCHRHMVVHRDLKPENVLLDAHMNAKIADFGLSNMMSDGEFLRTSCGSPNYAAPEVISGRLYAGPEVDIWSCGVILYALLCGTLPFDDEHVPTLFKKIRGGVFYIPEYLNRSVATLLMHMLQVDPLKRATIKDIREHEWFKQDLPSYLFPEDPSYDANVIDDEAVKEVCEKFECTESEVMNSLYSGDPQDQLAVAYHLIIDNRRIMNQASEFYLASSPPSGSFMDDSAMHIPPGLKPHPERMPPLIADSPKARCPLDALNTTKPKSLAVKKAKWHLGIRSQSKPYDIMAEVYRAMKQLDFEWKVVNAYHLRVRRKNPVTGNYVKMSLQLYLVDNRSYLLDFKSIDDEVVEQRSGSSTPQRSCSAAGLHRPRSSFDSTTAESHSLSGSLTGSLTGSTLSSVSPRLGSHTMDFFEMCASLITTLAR

STK11 (human) = STK11 (human) (UniProt Q15831)
STK17A (human) = STK17A (human) (UniProt Q9UEE5)
STK24 (human) = STK24 (human) (UniProt Q9Y6E0)
STK4 (human) = STK4 (human) (UniProt Q13043)
TGFBR2 (human) = TGFBR2 (human) (UniProt P37173)
TLK2 (human) = TLK2 (human) (UniProt Q86UE8)
[5] = biological target: TYK2 JH1 catalytic (human) (UniProt P29597)

Chain of AURKB (human) (Q96GD4 whole entry, looked up): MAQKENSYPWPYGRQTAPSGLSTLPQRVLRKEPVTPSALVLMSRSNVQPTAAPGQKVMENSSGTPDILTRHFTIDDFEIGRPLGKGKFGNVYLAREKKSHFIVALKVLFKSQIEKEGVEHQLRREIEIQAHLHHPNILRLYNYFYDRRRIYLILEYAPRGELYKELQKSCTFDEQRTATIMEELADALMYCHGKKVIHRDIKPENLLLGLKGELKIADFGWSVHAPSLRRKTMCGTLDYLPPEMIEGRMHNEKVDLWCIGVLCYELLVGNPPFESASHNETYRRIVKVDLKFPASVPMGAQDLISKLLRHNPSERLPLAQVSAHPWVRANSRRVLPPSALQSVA

SMILES: C=CC(=O)Nc1cc(NC(=O)c2ccc(C)c(NC(=O)c3ccno3)c2)cc(C(F)(F)F)c1
- kinase still bound, per cent of control [1]: 51%
- kinase still bound, per cent of control (ACVR2A (human)): 100%
- kinase still bound, per cent of control (AURKB (human)): 100%
- kinase still bound, per cent of control (BMPR1A (human)): 100%
- kinase still bound, per cent of control (CAMK2G (human)): 89%
- kinase still bound, per cent of control (CDC42BPA (human)): 100%
- kinase still bound, per cent of control (CDC42BPG (human)): 100%
- kinase still bound, per cent of control (CDK17 (human)): 92%
- kinase still bound, per cent of control (CDK5 (human)): 90%
- kinase still bound, per cent of control (CHEK1 (human)): 96%
- kinase still bound, per cent of control (CLK4 (human)): 100%
- kinase still bound, per cent of control (CSNK1A1L (human)): 90%
- kinase still bound, per cent of control (DAPK2 (human)): 97%
- kinase still bound, per cent of control (DMPK (human)): 100%
- kinase still bound, per cent of control (FGFR1 (human)): 100%
- kinase still bound, per cent of control [2]: 82%
- kinase still bound, per cent of control (FRK (human)): 12%
- kinase still bound, per cent of control (INSR (human)): 92%
- kinase still bound, per cent of control (INSRR (human)): 100%
- kinase still bound, per cent of control [3]: 100%
- kinase still bound, per cent of control [4]: 1.4%
- kinase still bound, per cent of control (MAP3K11 (human)): 100%
- kinase still bound, per cent of control (MAP4K3 (human)): 87%
- kinase still bound, per cent of control (MAPK8 (human)): 100%
- kinase still bound, per cent of control (MARK3 (human)): 67%
- kinase still bound, per cent of control (MERTK (human)): 99%
- kinase still bound, per cent of control (MST1R (human)): 99%
- kinase still bound, per cent of control (NEK9 (human)): 100%
- kinase still bound, per cent of control (PAK3 (human)): 100%
- kinase still bound, per cent of control (PIK3C2B (human)): 100%
- kinase still bound, per cent of control (PIK3CD (human)): 100%
- kinase still bound, per cent of control (PLK1 (human)): 77%
- kinase still bound, per cent of control (PRKAA2 (human)): 100%
- kinase still bound, per cent of control (STK11 (human)): 100%
- kinase still bound, per cent of control (STK17A (human)): 100%
- kinase still bound, per cent of control (STK24 (human)): 100%
- kinase still bound, per cent of control (STK4 (human)): 99%
- kinase still bound, per cent of control (TGFBR2 (human)): 93%
- kinase still bound, per cent of control (TLK2 (human)): 100%
- kinase still bound, per cent of control [5]: 98%

SMILES: O=C(NC1CC1)c1cccc(-c2ccc3c(NC(=O)C4CC4)n[nH]c3c2)c1
- kinase still bound, per cent of control [1]: 57%
- kinase still bound, per cent of control (ACVR2A (human)): 92%
- kinase still bound, per cent of control (AURKB (human)): 30%
- kinase still bound, per cent of control (BMPR1A (human)): 76%
- kinase still bound, per cent of control (CAMK2G (human)): 89%
- kinase still bound, per cent of control (CDC42BPA (human)): 87%
- kinase still bound, per cent of control (CDC42BPG (human)): 62%
- kinase still bound, per cent of control (CDK17 (human)): 37%
- kinase still bound, per cent of control (CDK5 (human)): 60%
- kinase still bound, per cent of control (CHEK1 (human)): 100%
- kinase still bound, per cent of control (CLK4 (human)): 100%
- kinase still bound, per cent of control (CSNK1A1L (human)): 100%
- kinase still bound, per cent of control (DAPK2 (human)): 87%
- kinase still bound, per cent of control (DMPK (human)): 100%
- kinase still bound, per cent of control (FGFR1 (human)): 100%
- kinase still bound, per cent of control [2]: 33%
- kinase still bound, per cent of control (FRK (human)): 89%
- kinase still bound, per cent of control (INSR (human)): 78%
- kinase still bound, per cent of control (INSRR (human)): 95%
- kinase still bound, per cent of control [3]: 27%
- kinase still bound, per cent of control [4]: 4.8%
- kinase still bound, per cent of control (MAP3K11 (human)): 100%
- kinase still bound, per cent of control (MAP4K3 (human)): 60%
- kinase still bound, per cent of control (MAPK8 (human)): 40%
- kinase still bound, per cent of control (MARK3 (human)): 75%
- kinase still bound, per cent of control (MERTK (human)): 71%
- kinase still bound, per cent of control (MST1R (human)): 90%
- kinase still bound, per cent of control (NEK9 (human)): 100%
- kinase still bound, per cent of control (PAK3 (human)): 60%
- kinase still bound, per cent of control (PIK3C2B (human)): 83%
- kinase still bound, per cent of control (PIK3CD (human)): 85%
- kinase still bound, per cent of control (PLK1 (human)): 78%
- kinase still bound, per cent of control (PRKAA2 (human)): 45%
- kinase still bound, per cent of control (STK11 (human)): 45%
- kinase still bound, per cent of control (STK17A (human)): 96%
- kinase still bound, per cent of control (STK24 (human)): 82%
- kinase still bound, per cent of control (STK4 (human)): 76%
- kinase still bound, per cent of control (TGFBR2 (human)): 100%
- kinase still bound, per cent of control (TLK2 (human)): 79%
- kinase still bound, per cent of control [5]: 40%
